Results reported in patent US4563479A, “Synergistic radiation protective pharmaceutical compositions” (Chinoin Gyogyszer es Vegyeszeti Termekek Gyar RT, priority 1979, dated 1986).
Counter-ions that a name gives are not always drawn. Like-named read-outs stand apart in the source and are kept apart here.

Legend:
mice = experiment: Survival and survival coefficient "S" of irradiated mice (X-ray or 60Co gamma), Tables 2-4; format: in vivo; settings: 140 mg/kg AET alone i.p.
Experimental: Experiments are carried out in mice. Irradiation was carried out with X-ray (rtg) and with gamma rays obtained from ^60 Co isotope. Survival was observed on the 30th day after irradiation and expressed by using survival coefficient "S" according to Kaluszyner. […] Mice were treated intraperitoneally.

[1] = cited from earlier work
[2] = cited from earlier work; remark: listed apart in the source

In the case of N=C(N)SCCN [AET, aminoethyl-isothiuronium-chloride-hydrochloride], the Survival % (mice; X-ray (rtg) 630 R) is reported as 15%, the “Survival coefficient "S"” value (mice; X-ray (rtg) 630 R) is reported as 0.39 and the Survival % (mice; X-ray (rtg) 800 R) is reported as 0%. For the same compound, the “Survival coefficient "S"” value (mice; X-ray (rtg) 800 R) was 0.27, the Survival % (mice; gamma 900 rad) was 5% and the “Survival coefficient "S"” value (mice; gamma 900 rad) was 0.37. The Survival % (mice; gamma 1100 rad) was 0%, the “Survival coefficient "S"” value (mice; gamma 1100 rad) was 0.28 and the LD50 p.o. ([1]; listed as aminoethyl-isothiuronium-chloride-hydrochloride) was 710 mg/kg.

In the case of N=C(N)SCCN [aminoethyl-isothiuronium-bromide-hydrobromide], the LD50 p.o. [1] is listed as 1200 mg/kg.

For Cl.N[C@@H](CS)C(=O)O [cysteine-hydrochloride], the Radiation protective dose ([2]; in vivo) is given as 1900 mg/kg.

For N=C(N)NCCS [mercaptoethyl-guanidine], the Therapeutic index ([2]; LD50 p.o. / radiation protective dose) is given as 1.75 and the LD50 p.o. [1] is given as 350 mg/kg.
